Laboratory results published in patent EP0013144A1, “Substituted diphenylamine derivatives, compositions and herbicidal uses thereof, and processes for their preparation” (ICI AUSTRALIA LIMITED, priority 1978, dated 1980).

Tests used:
Format in all cases: in vivo
Soy bean [1] = experiment: Post-emergence herbicidal test, young pot plants (Example 33); conditions: 2.0 kg/ha, after 14 days
Experimental: (§1) The compounds were formulated for test by mixing an appropriate amount with 5 ml of an emulsion prepared by diluting 160 ml of a solution containing 21.S g per litre of "Span" 80 and 78.2 g per litre of "Tween" 20 in methylcyclohexanone to 500 ml with water. "Span" 80 is a Trade Mark for a surface-active agent comprising sorbitan monolaurate. "Tween" 20 is a Trade Mark for a surface-active agent comprising a condensate of sorbitan monolaurate with 20 molar proportions of ethylene oxide. Each 5 ml emulsion containing a test compound was'then diluted to 40 ml with water and sprayed on to young pot plants (post-emergence test) of the species named in Table 5 below. Damage to test plants was assessed after 14 days on a scale of 0 to 5 where 0 is 0 to 20% damage and 5 is complete kill. In a test for pre-emergence herbicidal activity, seeds of the test plants were sown in a shallow slit formed in the surface of soil in fibre trays. The surface was then levelled and sprayed, and fresh soil then spread thinly over the sprayed surface. Assessment of herbicidal damage was carried out after 21 days using the same scale of 0 to 5 as the post-emergence test. In both cases the degree of herbicidal damage was assessed by comparison with untreated control plants. A dash (-) means that no experiment was carried out.

Rape [2] = experiment: as above; conditions: 2.0 kg/ha, after 14 days
Experimental: as §1

Senecio vulgaris [3] = experiment: as above; conditions: 2.0 kg/ha, after 14 days
Experimental: as §1

Amaranthus retroflexus = experiment: as above; conditions: 2.0 kg/ha, after 14 days
Experimental: as §1

Polygonum aviculare = experiment: as above; conditions: 2.0 kg/ha, after 14 days
Experimental: as §1

Ipomea purpurea = experiment: as above; conditions: 2.0 kg/ha, after 14 days
Experimental: as §1

Cotton [4] = experiment: as above; conditions: 2.0 kg/ha, after 14 days
Experimental: as §1

Sugar beet [5] = experiment: as above; conditions: 2.0 kg/ha, after 14 days
Experimental: as §1

Chenopodium album = experiment: as above; conditions: 2.0 kg/ha, after 14 days
Experimental: as §1

Maize [6] = experiment: as above; conditions: 2.0 kg/ha, after 14 days
Experimental: as §1

Rice [7] = experiment: as above; conditions: 2.0 kg/ha, after 14 days
Experimental: as §1

Rice [8] = experiment: Pre-emergence herbicidal test, fibre trays (Example 33); conditions: 2.0 kg/ha, after 21 days
Experimental: as §1

Maize [9] = experiment: as above; parameters: key: 0 = 0-20% damage, 5 = complete kill, vs untreated control; conditions: 2.0 kg/ha, after 21 days
Experimental: as §1

Winter wheat [10] = experiment: Post-emergence herbicidal test, young pot plants (Example 33); parameters: key: 0 = 0-20% damage, 5 = complete kill, vs untreated control; conditions: 2.0 kg/ha, after 14 days
Experimental: as §1

Soy bean [11] = experiment: Pre-emergence herbicidal test, fibre trays (Example 33); conditions: 2.0 kg/ha, after 21 days
Experimental: as §1

Rape [12] = experiment: as above; conditions: 2.0 kg/ha, after 21 days
Experimental: as §1

Senecio vulgaris [13] = experiment: as above; conditions: 2.0 kg/ha, after 21 days
Experimental: as §1

Winter wheat [14] = experiment: as above; conditions: 2.0 kg/ha, after 21 days
Experimental: as §1

Cotton [15] = experiment: as above; conditions: 2.0 kg/ha, after 21 days
Experimental: as §1

Sugar beet [16] = experiment: as above; conditions: 2.0 kg/ha, after 21 days
Experimental: as §1

For COC(=O)C(C)Oc1ccc(Nc2ccc(Cl)cc2)cc1 (centres unmarked) [Compound 12, Methyl 2-[4-(4-chloroanilino)prienoxy]propionate], the “damage to test plants, Sy” value (Soy bean [1]) was 0 (0 is 0 to 20% damage), the “damage to test plants, Rp” value (Rape [2]) was 0 (0 is 0 to 20% damage) and the “damage to test plants, Sn” value (Senecio vulgaris [3]) was 1. For the same compound, the “damage to test plants, Am” value (Amaranthus retroflexus) was 2, the “damage to test plants, Pi” value (Polygonum aviculare) was 0 (0 is 0 to 20% damage) and the “damage to test plants, Ip” value (Ipomea purpurea) was 0 (0 is 0 to 20% damage). The “damage to test plants, Ct” value (Cotton [4]) was 0 (0 is 0 to 20% damage), the “damage to test plants, Sb” value (Sugar beet [5]) was 1 and the “damage to test plants, Ca” value (Chenopodium album) was 0 (0 is 0 to 20% damage). The “damage to test plants, Mz” value (Maize [6]) was 2, the “damage to test plants, Rc” value (Rice [7]) was 0 (0 is 0 to 20% damage) and the “herbicidal damage, Rc” value (Rice [8]) was 0 (0 is 0 to 20% damage). The “herbicidal damage, Mz” value (Maize [9]) was 0 (0 is 0 to 20% damage), the “damage to test plants, Ww” value (Winter wheat [10]) was 0 (0 is 0 to 20% damage) and the “herbicidal damage, Sy” value (Soy bean [11]) was 1. For the same compound, the “herbicidal damage, Rp” value (Rape [12]) was 1, the “herbicidal damage, Sn” value (Senecio vulgaris [13]) was 0 (0 is 0 to 20% damage) and the “herbicidal damage, Ww” value (Winter wheat [14]) was 0 (0 is 0 to 20% damage). The “herbicidal damage, Ct” value (Cotton [15]) was 1 and the “herbicidal damage, Sb” value (Sugar beet [16]) was 2.
